Source: patent US20230203095A1, “BIOLOGICAL PEPTIDE FOR TREATING LUNG DISEASES AND APPLICATION THEREOF” (SHANGHAI INSTITUTE OF PHARMACEUTICAL INDUSTRY CO., LTD., priority 2019, published 2023)
Square brackets hold non-standard residues; d marks the D form. Peptide text beside a SMILES is read from it.

Legend:
[1] = Plasma drug concentrations and pharmacokinetics after a single subcutaneous injection of SP peptide or SIPI-D00 peptide in SD rats; type: in vivo
Method: Route: Single back subcutaneous injection;
Dosage of the drug: SP peptide and SIPI-D00 peptide were prepared into 3.33 mg/mL solution with normal saline, the dosage of SP peptide by back subcutaneous injection was 10 mg/kg body weight, and the dosage of SIPI-D00 peptide by back subcutaneous injection was 5 mg/kg body weight. […]

serum IgE = assay: Serum IgE level in OVA-induced allergic asthma model mice; type: in vivo, BALB/c mice; conditions: for Serum IgE level (OD450): days 19-28, n=10
Method: (§1) The first batch: mice were divided into groups, 10 mice in each group, namely: blank control group (normal saline), model group (OVA, 20 ug/mouse), SP peptide group (administered dose of 175 µg/kg body weight/day, 350 µg/kg body weight/day, respectively), SIPI-D00 peptide group (administered dose of 175 µg/kg body weight/day, 350 µg/kg body weight/day), and dexamethasone group (administered dose of 2 mg/kg body weight/day).
OVA for sensitization was dissolved in sterile PBS solution at a final concentration of 0.2 mg/mL, then an equal volume of aluminum hydroxide adjuvant was added. After shaking for 30 minutes, each mouse was intraperitoneally injected with 0.2 mL (20 µg OVA per mouse).
2% OVA solution was prepared in sterile PBS. The 2% OVA was nebulized with a nebulizer, and the mice were placed in the nebulizer inhalation box for 30 minutes per day.
According to the dosage, SP peptide and SIPI-D00 were dissolved in normal saline respectively, and administered by subcutaneous administration on the back according to the body weight of the animals.
(§2) Mice in the model group, SP peptide group, SIPI-D00 peptide group and dexamethasone group were sensitized by intraperitoneal injection of OVA (20 µg OVA/mice) on day 0, 7, and 14, and challenged by aerosol administration of OVA (once a day for 5 consecutive days) on day 21-25 to construct asthmatic model animals. Mice in the model group were given normal saline on days 21-28; mice in different doses of SP peptide group and SIPI-D00 peptide group were injected subcutaneously with different doses of SP and SIPI-D00 on days 19-28; mice in dexamethasone group were injected intraperitoneally with 2 mg/kg/day dexamethasone on days 21-28. At the same time, 10 mice in the blank control group were fed normally from day 0 to day 28 without any treatment, and were given normal saline as a blank control.
After 28 days, blood was collected from the inner canthus of the mouse, and the serum was collected, and the IgE level in the serum was measured with an ELISA kit. […]
(§3) At the same time, 10 mice in the blank control group were fed normally from day 0 to day 28 without any treatment, and were given normal saline as a blank control.

[2] = tested on: OVA-induced asthma model mice; assay: Lung function (inspiratory airway resistance, lung compliance) in OVA-induced allergic asthma model mice; type: in vivo, BALB/c mice; conditions: for Inspiratory airway resistance / Lung compliance: n=10
Method: The second batch: mice were divided into groups, 10 mice in each group, namely: blank control group (normal saline), model group (OVA, dose of 20 ug/mouse), SP peptide group (administered dose of 87.5 µg/kg body weight/ day, 175 µg/kg body weight/day, 350 µg/kg body weight/day, respectively), SIPI-D00 peptide group (administered dose of 87.5 µg/kg body weight/day, 175 µg/kg body weight/day, 350 µg/kg body weight/day), and Dexamethasone group (administered dose of 2 mg/kg body weight/day).
as §2
On the 28th day, the mice were anesthetized with tracheal intubation and jugular vein intubation, and the inspiratory airway resistance and lung compliance were measured in each group of animals. Each animal was given fold increasing amounts of methacholine via the jugular vein: 0.025 mg/kg, 0.05 mg/kg, 0.1 mg/kg, 0.2 mg/kg. After each dose was given, the lung compliance curve was recorded continuously for 5 minutes, and the inspiratory airway resistance and lung compliance were calculated. […]
as §3

[3] = tested on: OVA-induced asthma model mice; assay: Lung pathology (H&E) of OVA-induced asthma model mice; type: in vivo, BALB/c mice; conditions: after 28 days
Method: as §1, §2
After 28 days, the mouse lung tissue was taken out, fixed in 4% formaldehyde, embedded in paraffin, sectioned, and stained with H&E for pathological observation.
as §1, with “ug/mice), and” for “ug/mouse),”, “SIPI-G5” for “SIPI-D00”, “weight/day),” for “weight/day), and”
as §3

[4] = 87.5 ug/kg/day s.c., methacholine 0 mg/kg
[5] = 87.5 ug/kg/day s.c., methacholine 0.025 mg/kg
[6] = 87.5 ug/kg/day s.c., methacholine 0.05 mg/kg
[7] = 87.5 ug/kg/day s.c., methacholine 0.1 mg/kg
[8] = 87.5 ug/kg/day s.c., methacholine 0.2 mg/kg
[9] = 175 ug/kg/day s.c., methacholine 0 mg/kg
[10] = 175 ug/kg/day s.c., methacholine 0.025 mg/kg
[11] = 175 ug/kg/day s.c., methacholine 0.05 mg/kg
[12] = 175 ug/kg/day s.c., methacholine 0.1 mg/kg
[13] = 175 ug/kg/day s.c., methacholine 0.2 mg/kg
[14] = 350 ug/kg/day s.c., methacholine 0 mg/kg
[15] = 350 ug/kg/day s.c., methacholine 0.025 mg/kg
[16] = 350 ug/kg/day s.c., methacholine 0.05 mg/kg
[17] = 350 ug/kg/day s.c., methacholine 0.1 mg/kg
[18] = 350 ug/kg/day s.c., methacholine 0.2 mg/kg

- Plasma concentration ([1]; SIPI-D00 5 mg/kg s.c., SD rats, time 0 h, parallels 1-4): 0 ng/mL
- Plasma concentration ([1]; SIPI-D00 5 mg/kg s.c., SD rats, time 0.1 h, parallels 1-4, 5 mg/kg): 5167 ng/mL
- Plasma concentration ([1]; SIPI-D00 5 mg/kg s.c., SD rats, time 0.333 h, parallels 1-4, 5 mg/kg): 5836 ng/mL
- Plasma concentration ([1]; SIPI-D00 5 mg/kg s.c., SD rats, time 0.667 h, parallels 1-4, 5 mg/kg): 5242 ng/mL
- Plasma concentration ([1]; SIPI-D00 5 mg/kg s.c., SD rats, time 2 h, parallels 1-4, 5 mg/kg): 1185 ng/mL
- Fa ([1]; SIPI-D00 5 mg/kg single subcutaneous injection, SD rats, Mean±SD): 96.3±13.3%
- level at 0.1 h ([1]; male, SD, rat, plasma, sc, 5 mg/kg, SIPI-D00 5 mg/kg s.c., SD rats, time 0.1 h, parallels 1-4, read-out: Plasma concentration): 3580 ng/mL
- level at 0.167 h ([1]; male, SD, rat, plasma, sc, 5 mg/kg, SIPI-D00 5 mg/kg s.c., SD rats, time 0.167 h, parallels 1-4, read-out: Plasma concentration): 4720 ng/mL
- level at 0.333 h ([1]; male, SD, rat, plasma, sc, 5 mg/kg, SIPI-D00 5 mg/kg s.c., SD rats, time 0.333 h, parallels 1-4, read-out: Plasma concentration): 5890 ng/mL
- level at 0.667 h ([1]; male, SD, rat, plasma, sc, 5 mg/kg, SIPI-D00 5 mg/kg s.c., SD rats, time 0.667 h, parallels 1-4, read-out: Plasma concentration): 5260 ng/mL
- level at 1 h ([1]; male, SD, rat, plasma, sc, 5 mg/kg, SIPI-D00 5 mg/kg s.c., SD rats, time 1 h, parallels 1-4, read-out: Plasma concentration): 3940 ng/mL
- level at 2 h ([1]; male, SD, rat, plasma, sc, 5 mg/kg, SIPI-D00 5 mg/kg s.c., SD rats, time 2 h, parallels 1-4, read-out: Plasma concentration): 1160 ng/mL
- level at 3 h ([1]; male, SD, rat, plasma, sc, 5 mg/kg, SIPI-D00 5 mg/kg s.c., SD rats, time 3 h, parallels 1-4, read-out: Plasma concentration): 291 ng/mL
- level at 4 h ([1]; male, SD, rat, plasma, sc, 5 mg/kg, SIPI-D00 5 mg/kg s.c., SD rats, time 4 h, parallels 1-4, read-out: Plasma concentration): 53.5 ng/mL
- level at 6 h ([1]; male, SD, rat, plasma, sc, 5 mg/kg, SIPI-D00 5 mg/kg s.c., SD rats, time 6 h, parallels 1-4, read-out: Plasma concentration): 3.51 ng/mL
- AUC compared with SP ([1]; rat, in vivo, sc): significantly improved compared with SP
- AUC(0-t) ([1]; rat, in vivo, sc, 5 mg/kg): 8820 ± 1320 ng·h/mL
- Cmax ([1]; rat, in vivo, sc, 5 mg/kg): 5910 ± 447 ng/mL
- MRT last ([1]; rat, in vivo, sc, 5 mg/kg): 57.8 ± 1.14 min
- Tmax ([1]; rat, in vivo, sc, 5 mg/kg): 12.5 ± 4.98 min
- half-life ([1]; rat, in vivo, sc, 5 mg/kg): 90 min
SMILES: C[C@H](O)[C@@H](NC(=O)[C@@H](Cc1ccc(O)cc1)NC(=O)[C@H](NC(=O)[C@@H](CO)NC(=O)CN)[C@H](C)O)C(=O)N[C@H](CCC(N)=O)C(=O)NCC(=O)O [SIPI-D00, GSTYTQG] (H-G[dS][dT][dY][dT][dQ]G-OH)
- Serum IgE level (OD450) (serum IgE; 175 ug/kg/day subcutaneous): 0.421 ± 0.044 OD450
- Serum IgE level (OD450) (serum IgE; 350 ug/kg/day subcutaneous): 0.279 ± 0.036 OD450
- IgE level in the serum (in words) (serum IgE; compared with the model group and SP peptide group): significantly decreased
- Inspiratory airway resistance [2, 4]: 1.00±0.00
- Lung compliance [2, 4]: 1.00±0.00
- Inspiratory airway resistance [2, 5]: 1.32±0.32
- Lung compliance [2, 5]: 0.80±0.18
- Inspiratory airway resistance [2, 6]: 1.64±0.35
- Lung compliance [2, 6]: 0.64±0.14
- Inspiratory airway resistance [2, 7]: 1.86±0.43
- Lung compliance [2, 7]: 0.57±0.13
- Inspiratory airway resistance [2, 8]: 2.05±0.51
- Lung compliance [2, 8]: 0.52±0.13
- Inspiratory airway resistance [2, 9]: 1.00±0.00
- Lung compliance [2, 9]: 1.00±0.00
- Inspiratory airway resistance [2, 10]: 1.21±0.15
- Lung compliance [2, 10]: 0.84±0.10
- Inspiratory airway resistance [2, 11]: 1.35±0.18
- Lung compliance [2, 11]: 0.75±0.10
- Inspiratory airway resistance [2, 12]: 1.47±0.21
- Lung compliance [2, 12]: 0.69±0.093
- Inspiratory airway resistance [2, 13]: 1.58±0.34
- Lung compliance [2, 13]: 0.65±0.12
- Inspiratory airway resistance [2, 14]: 1.00±0.00
- Lung compliance [2, 14]: 1.00±0.00
- Inspiratory airway resistance [2, 15]: 1.28±0.30
- Lung compliance [2, 15]: 0.83±0.14
- Inspiratory airway resistance [2, 16]: 1.43±0.35
- Lung compliance [2, 16]: 0.70±0.19
- Inspiratory airway resistance [2, 17]: 1.61±0.47
- Lung compliance [2, 17]: 0.55±0.18
- Inspiratory airway resistance [2, 18]: 1.74±0.51
- Lung compliance [2, 18]: 0.49±0.19
- inspiratory phase resistance (in words) ([2]; compared with the model group): significantly decreased
- lung compliance (in words) ([2]; compared with the model group): significantly increased
- lung pathology, H&E ([3]; high-dose group (350 µg/kg body weight/day)): less inflammatory cell infiltration and clear alveolar cavity
- lung pathology, H&E ([3]; low-dose group (175 µg/kg body weight/day)): more inflammatory cells infiltrating in the lungs
- infiltration of inflammatory cells in the lungs, H&E ([3]; overall): significantly reduce the infiltration of inflammatory cells
